Assay results taken from article PMC6428840, “The Arabidopsis H3K27me3 demethylase JUMONJI 13 is a temperature and photoperiod dependent flowering repressor” (Nature Communications, 2019).

Molecular target: T1, JMJ13CD (JMJ13 catalytic domain) (Arabidopsis thaliana, UniProt F4KIX0)
T1 construct: catalytic domain, residues 90-578 (jumonji, helical and C4HCHC zinc finger domains); His6-SUMO tag removed by ulp1; E. coli BL21(DE3) RIL; Ni2+ in place of Fe2+
Assay: X-ray crystal structure, […] Å
Format: binding
Settings: JMJ13-NOG crystals soaked with 10 mM H3(24-35)K27me3 peptide; Ni2+ in place of Fe2+; pH 6.5; active site, α-KG analog

T1 sequence (F4KIX0 90-578): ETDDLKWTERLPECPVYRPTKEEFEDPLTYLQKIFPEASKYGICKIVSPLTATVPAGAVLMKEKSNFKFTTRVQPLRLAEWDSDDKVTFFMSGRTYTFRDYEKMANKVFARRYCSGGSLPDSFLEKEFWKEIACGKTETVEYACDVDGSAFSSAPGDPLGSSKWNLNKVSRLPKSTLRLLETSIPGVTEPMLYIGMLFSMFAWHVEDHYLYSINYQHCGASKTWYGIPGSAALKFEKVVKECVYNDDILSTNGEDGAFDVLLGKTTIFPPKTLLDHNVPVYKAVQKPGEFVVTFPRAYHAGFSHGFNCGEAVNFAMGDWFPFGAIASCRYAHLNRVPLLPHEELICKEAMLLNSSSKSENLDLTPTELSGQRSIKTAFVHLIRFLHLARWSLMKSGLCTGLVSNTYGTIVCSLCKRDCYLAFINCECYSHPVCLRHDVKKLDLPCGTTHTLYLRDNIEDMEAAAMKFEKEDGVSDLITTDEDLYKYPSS

O=C(O)CNC(=O)C(=O)O [NOG, N-oxalylglycine] was tested, and the “X-ray crystal structure, 2.6 Å” value was “in complex with the α-KG analog N-oxalylglycine (NOG) and an H3K27me3 peptide”.
